Key:
[1] = biological target: GDP-bound NRAS wild-type protein (Homo sapiens, UniProt P01111); assay: Binding to NRAS by surface plasmon resonance (SPR), Single Cycle Kinetics; conditions: SPR; GDP-bound NRAS wild-type protein vs GDP-bound KRAS wild-type protein; KD ratio class
[2] = system: human lung cancer strain NCI-H441;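 further: cell proliferation inhibition after four days measured by CellTiter-Glo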
[3] = biological target: GDP-bound HRAS wild-type protein (Homo sapiens, UniProt P01112); assay: Binding to HRAS by surface plasmon resonance (SPR), Single Cycle Kinetics; conditions: SPR; GDP-bound HRAS wild-type protein vs GDP-bound KRAS wild-type protein; KD ratio class
[4] = biological target: GDP-bound KRAS wild-type protein (Homo sapiens, UniProt P01116); assay: Binding to KRAS by surface plasmon resonance (SPR), Single Cycle Kinetics; conditions: SPR, Single Cycle Kinetics, 1:1 binding model; GDP-bound KRAS wild-type protein; read-out: KRAS KD
GDP-bound KRAS wild-type protein, sequence (P01116 whole entry): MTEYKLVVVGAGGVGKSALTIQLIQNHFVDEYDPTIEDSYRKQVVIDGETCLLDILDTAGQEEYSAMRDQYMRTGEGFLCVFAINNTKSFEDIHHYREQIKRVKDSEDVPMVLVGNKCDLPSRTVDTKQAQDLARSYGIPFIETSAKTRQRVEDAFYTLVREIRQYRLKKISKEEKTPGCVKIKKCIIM

GDP-bound HRAS wild-type protein, sequence (P01112 whole entry): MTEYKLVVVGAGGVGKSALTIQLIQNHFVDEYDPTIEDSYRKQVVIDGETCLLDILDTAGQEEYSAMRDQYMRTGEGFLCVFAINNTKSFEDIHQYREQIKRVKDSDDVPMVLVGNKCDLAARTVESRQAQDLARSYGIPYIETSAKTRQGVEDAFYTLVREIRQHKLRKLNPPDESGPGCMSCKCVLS
GDP-bound NRAS wild-type protein, sequence (P01111 whole entry): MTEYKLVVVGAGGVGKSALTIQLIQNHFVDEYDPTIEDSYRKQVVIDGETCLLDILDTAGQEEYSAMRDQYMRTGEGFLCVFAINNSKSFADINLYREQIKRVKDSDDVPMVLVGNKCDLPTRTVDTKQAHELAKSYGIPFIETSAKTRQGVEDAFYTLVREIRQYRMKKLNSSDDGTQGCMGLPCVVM

SMILES	NRAS/KRAS (ratio of KD value for NRAS to KD value for KRAS) [1]	IC50 [2] [nM]	HRAS/KRAS (ratio of KD value for HRAS to KD value for KRAS) [3]	Kd [4] [nM]
CCO[C@@H]1C[C@H]2C(=O)NC3(CCC3)C(=O)N(C)[C@@H](C3CCCC3)C(=O)N(C)[C@H](C(=O)N(C)C)CC(=O)N(C)[C@@H](CC3CC3)C(=O)N[C@@H]([C@@H](C)CC)C(=O)N(C)CC(=O)N(C)[C@H]3C/C=C\CCN(C3=O)[C@@H](Cc3ccc(C)cc3)C(=O)N(C)CC(=O)N[C@@H](CCc3cc(F)c(C(F)(F)F)c(F)c3)C(=O)N2C1 [PP1407, (2S,8S,12R,14S,20S,23S,27S,30S,36S,38Z)-20-cyclopentyl-27-(cyclopropylmethyl)-8-[2-[3,5-difluoro-4-(trifluoromethyl)phenyl]ethyl]-12-ethoxy-N,N,4,19,22,26,32,35-octamethyl-30-[(1S)-1-methylpropyl]-3,6,9,15,18,21,25,28,31,34,42-undecaoxo-2-(p-tolylmethyl)spiro[1,4,7,10,16,19,22,26,29,32,35-undecazatricyclo[34.5.1.0^10,14]dotetracont-38-ene-17,1′-cyclobutane]-23-carboxamide]	A (a compound having 10 or more and less than 20 is denoted as A)	18.7	A (a compound having 10 or more and less than 20 is denoted as A)	0.074
CCO[C@@H]1C[C@H]2C(=O)NC3(CCC3)C(=O)N(C)[C@@H](C3CCCC3)C(=O)N(C)[C@H](C(=O)N3CCOCC3)CC(=O)N(C)[C@@H](CC3CC3)C(=O)N[C@@H]([C@@H](C)CC)C(=O)N(C)CC(=O)N(C)[C@H]3C/C=C\CCN(C3=O)[C@@H](Cc3ccc(C)cc3)C(=O)N(C)CC(=O)N[C@@H](CCc3cc(F)c(C(F)(F)F)c(F)c3)C(=O)N2C1 [PP1408]	A (a compound having 10 or more and less than 20 is denoted as A)	37.6	A (a compound having 10 or more and less than 20 is denoted as A)	0.22
CCO[C@@H]1C[C@H]2C(=O)NC3(CCC3)C(=O)N(C)[C@@H](C3CCCC3)C(=O)N(C)[C@H](C(=O)N3CCCC3)CC(=O)N(C)[C@@H](CC3CC3)C(=O)N[C@@H]([C@@H](C)CC)C(=O)N(C)CC(=O)N(C)[C@H]3C/C=C\CCN(C3=O)[C@@H](Cc3ccc(C)cc3)C(=O)N(C)CC(=O)N[C@@H](CCc3cc(F)c(C(F)(F)F)c(F)c3)C(=O)N2C1 [PP1409]	A (a compound having 10 or more and less than 20 is denoted as A)	43.5	A (a compound having 10 or more and less than 20 is denoted as A)	0.21
CCO[C@@H]1C[C@H]2C(=O)NC3(CCC3)C(=O)N(C)[C@@H](C3CCCC3)C(=O)N(C)[C@H](C)CC(=O)N(C)[C@@H](CC3CC3)C(=O)N[C@@H]([C@@H](C)CC)C(=O)N(C)CC(=O)N(C)[C@H]3C/C=C\CCN(C3=O)[C@@H](Cc3ccc(C)cc3)C(=O)N(C)CC(=O)N[C@@H](CCc3cc(F)c(C(F)(F)F)c(F)c3)C(=O)N2C1 [PP1410]	B (a compound having 3 or more and less than 10 is denoted as B)	51	B (a compound having 3 or more and less than 10 is denoted as B)	0.32
CCO[C@@H]1C[C@H]2C(=O)NC3(CCC3)C(=O)N(C)[C@@H](C3CCCC3)C(=O)N(C)[C@H](C(=O)N(C)C)CC(=O)N(C)[C@@H](CC3CCCC3)C(=O)N[C@@H]([C@@H](C)CC)C(=O)N(C)CC(=O)N(C)[C@H]3C/C=C\CCN(C3=O)[C@@H](Cc3ccc(C)cc3)C(=O)N(C)CC(=O)N[C@@H](CCc3cc(F)c(C(F)(F)F)c(F)c3)C(=O)N2C1 [PP1411, (2S,8S,12R,14S,20S,23S,27S,30S,36S,38Z)-20-cyclopentyl-27-(cyclopentylmethyl)-8-[2-[3,5-difluoro-4-(trifluoromethyl)phenyl]ethyl]-12-ethoxy-N,N,4,19,22,26,32,35-octamethyl-30-[(1S)-1-methylpropyl]-3,6,9,15,18,21,25,28,31,34,42-undecaoxo-2-(p-tolylmethyl)spiro[1,4,7,10,16,19,22,26,29,32,35-undecazatricyclo[34.5.1.0^10,14]dotetracont-38-ene-17,1′-cyclobutane]-23-carboxamide]	A (a compound having 10 or more and less than 20 is denoted as A)	6	B (a compound having 3 or more and less than 10 is denoted as B)	0.08
CCO[C@@H]1C[C@H]2C(=O)NC3(CCC3)C(=O)N(C)[C@@H](C3CCCC3)C(=O)N(C)[C@H](C(=O)N3CCCC3)CC(=O)N(C)[C@@H](CC3CCCC3)C(=O)N[C@@H]([C@@H](C)CC)C(=O)N(C)CC(=O)N(C)[C@H]3C/C=C\CCN(C3=O)[C@@H](Cc3ccc(C)cc3)C(=O)N(C)CC(=O)N[C@@H](CCc3cc(F)c(C(F)(F)F)c(F)c3)C(=O)N2C1 [PP1412]	A (a compound having 10 or more and less than 20 is denoted as A)	23	A (a compound having 10 or more and less than 20 is denoted as A)	0.19
CCO[C@@H]1C[C@H]2C(=O)NC3(CCC3)C(=O)N(C)[C@@H](C3CCCC3)C(=O)N(C)[C@H](C)CC(=O)N(C)[C@@H](CC3CCCC3)C(=O)N[C@@H]([C@@H](C)CC)C(=O)N(C)CC(=O)N(C)[C@H]3C/C=C\CCN(C3=O)[C@@H](Cc3ccc(C)cc3)C(=O)N(C)CC(=O)N[C@@H](CCc3cc(F)c(C(F)(F)F)c(F)c3)C(=O)N2C1 [PP1413]	B (a compound having 3 or more and less than 10 is denoted as B)	62.5	B (a compound having 3 or more and less than 10 is denoted as B)	0.42
CCO[C@@H]1C[C@H]2C(=O)NC3(CCC3)C(=O)N(C)[C@@H](C3CCCC3)C(=O)N(C)[C@H](C(=O)N(C)C)CC(=O)N(C)[C@@H](CC(C)C)C(=O)N[C@@H]([C@@H](C)CC)C(=O)N(C)CC(=O)N(C)[C@H]3C/C=C\CCN(C3=O)[C@@H](Cc3ccc(C)cc3)C(=O)N(C)CC(=O)N[C@@H](CCc3cc(F)c(C(F)(F)F)c(F)c3)C(=O)N2C1 [PP1414, (2S,8S,12R,14S,20S,23S,27S,30S,36S,38Z)-20-cyclopentyl-8-[2-[3,5-difluoro-4-(trifluoromethyl)phenyl]ethyl]-12-ethoxy-27-isobutyl-N,N,4,19,22,26,32,35-octamethyl-30-[(1S)-1-methylpropyl]-3,6,9,15,18,21,25,28,31,34,42-undecaoxo-2-(p-tolylmethyl)spiro[1,4,7,10,16,19,22,26,29,32,35-undecazatricyclo[34.5.1.0^10,14]dotetracont-38-ene-17,1′-cyclobutane]-23-carboxamide]	A (a compound having 10 or more and less than 20 is denoted as A)	4.4	B (a compound having 3 or more and less than 10 is denoted as B)	0.074
CCO[C@@H]1C[C@H]2C(=O)NC3(CCC3)C(=O)N(C)[C@@H](C3CCCC3)C(=O)N(C)[C@H](C(=O)N3CCOCC3)CC(=O)N(C)[C@@H](CC(C)C)C(=O)N[C@@H]([C@@H](C)CC)C(=O)N(C)CC(=O)N(C)[C@H]3C/C=C\CCN(C3=O)[C@@H](Cc3ccc(C)cc3)C(=O)N(C)CC(=O)N[C@@H](CCc3cc(F)c(C(F)(F)F)c(F)c3)C(=O)N2C1 [PP1415]	A (a compound having 10 or more and less than 20 is denoted as A)	9.5	A (a compound having 10 or more and less than 20 is denoted as A)	0.25
CCO[C@@H]1C[C@H]2C(=O)NC3(CCC3)C(=O)N(C)[C@@H](C3CCCC3)C(=O)N(C)[C@H](C(=O)N3CCCC3)CC(=O)N(C)[C@@H](CC(C)C)C(=O)N[C@@H]([C@@H](C)CC)C(=O)N(C)CC(=O)N(C)[C@H]3C/C=C\CCN(C3=O)[C@@H](Cc3ccc(C)cc3)C(=O)N(C)CC(=O)N[C@@H](CCc3cc(F)c(C(F)(F)F)c(F)c3)C(=O)N2C1 [PP1416]	A (a compound having 10 or more and less than 20 is denoted as A)	3.8	A (a compound having 10 or more and less than 20 is denoted as A)	0.17
CCO[C@@H]1C[C@H]2C(=O)NC3(CCC3)C(=O)N(C)[C@@H](C3CCCC3)C(=O)N(C)[C@H](C(=O)N3CCOCC3)CC(=O)N(C)[C@@H](CC3CCCCC3)C(=O)N[C@@H]([C@@H](C)CC)C(=O)N(C)CC(=O)N(C)[C@H]3C/C=C\CCN(C3=O)[C@@H](Cc3ccc(C(F)(F)F)cc3)C(=O)N(C)CC(=O)N[C@@H](CCc3cc(F)c(C(F)(F)F)c(F)c3)C(=O)N2C1 [PP1418]	AA (a compound having 20 or more is denoted as AA)	29.9	A (a compound having 10 or more and less than 20 is denoted as A)	0.24
CCO[C@@H]1C[C@H]2C(=O)NC3(CCC3)C(=O)N(C)[C@@H](C3CCCC3)C(=O)N(C)[C@H](C(=O)N3CCCC3)CC(=O)N(C)[C@@H](CC3CCCCC3)C(=O)N[C@@H]([C@@H](C)CC)C(=O)N(C)CC(=O)N(C)[C@H]3C/C=C\CCN(C3=O)[C@@H](Cc3ccc(C(F)(F)F)cc3)C(=O)N(C)CC(=O)N[C@@H](CCc3cc(F)c(C(F)(F)F)c(F)c3)C(=O)N2C1 [PP1419]	AA (a compound having 20 or more is denoted as AA)	40.4	A (a compound having 10 or more and less than 20 is denoted as A)	0.26
